Assay results as given in US6479657B1, “Crystalline 1-kestose and process for preparing the same” (Meiji Seika Kaisha, Ltd., priority 1995, dated 2002).

Assays:
[1] = system: enzyme having fructose transferase activity derived from a Penicillium microorganism; assay: Properties of the novel Penicillium enzyme: substrate specificity, inhibition, kinetics; type: biochemical, Penicillium roqueforti
Method: In the case of an enzyme derived from a Penicillium microorganism, the quantity of enzyme which can produce 1 μmol of 1-kestose in 1 minute at 50° C., pH 7.0, and a substrate (sucrose) concentration of 10 wt %; and The enzyme is prepared from a Penicillium microorganism, preferably from Penicillium roqueforti, specifically Penicillium roqueforti IAM7254 strain. The enzyme can be recovered from a culture by incubating the microorganism in a suitable medium (e.g., a medium containing 5 to 30% of sucrose, 1 to 10% of corn steep liquor, 0.05 to 0.3% of urea, 0.2 to 3.0 of potassium dihydrogenphosphate, and 0.01 to 0.1% of magnesium sulfate heptahydrate), at initial pH of 6.5 to 7.5 and a temperature of 25 to 30° C. for 2 to 5 days.

[2] = system: enzyme having fructose transferase activity derived from a Scopulariopsis microorganism; assay: Properties of the novel Scopulariopsis enzyme: substrate specificity, inhibition, kinetics; type: biochemical, Scopulariopsis brevicaulis
Method: In the case of an enzyme derived from a Scopulariopsis microorganism, the quantity of enzyme which can produce 1 μmol of 1-kestose in 1 minute at 40° C., pH 7.0, and a substrate (sucrose) concentration of 10 wt %.
The enzyme is prepared from a Scopulariopsis microorganism, preferably from Scopulariopsis brevicaulis, specifically Scopulariopsis brevicaulis IF04843 strain.
The enzyme can be recovered from a culture by incubating the microorganism in a suitable medium (e.g., a medium containing 3.0 to 10.0% of sucrose, 5 to 15% of corn steep liquor, 0.05 to 0.3% of urea, 0.2 to 3.0 of potassium dihydrogenphosphate, and 0.01 to 0.1% of magnesium sulfate heptahydrate), at initial pH of 6.5 to 7.5 and a temperature of 20 to 30° C. for 3 to 8 days. The enzyme is prepared preferably by recovering the fungus body from the culture using a centrifuge such as a basket type; suspending the recovered fungus body in a buffer at pH 7.0; obtaining a crude enzyme suspension by an ultrasonic treatment and a membrane treatment; then treating with anion exchange, gel filtration, chromatographic focusing, or other procedure on the crude enzyme suspension.
The freeze-dried fungus body powder prepared above was suspended in a McIlvaine buffer (pH 7.0), and ultrasonically crushed. The crushed cells were ultrafiltrated through a membrane filter (cutoff molecular weight: 100,000).

[3] = Decomposition of 1-kestose in the decolorizing and desalting procedure; type: physicochemical; settings: activated carbon at 60° C. for 20 minutes, cation and anion exchange resin
Method: (§1) The deactivated solution was filtered to remove any impurities such as the fungus body and the activated carbon. Then, activated carbon (Taiko activated carbon S-W50) was added to the filtrate at a rate of 0.5% of the solids content, and stirred at a temperature of 60° C. for 20 minutes to decolorize again. After filtrating to remove the activated carbon in the same manner as above, the solution was desalted through cation and anion exchange resin, then filtrated again to make a colorless and transparent 1-kestose solution (chromatographic sample).
as §1, with “per” for “of the”
The deactivated solution was filtered to remove any impurities such as the fungus body and the activated carbon. […]

| SMILES | Substrate specificity (enzyme acts on sugar) [1] | Substrate specificity (enzyme acts on sugar) [2] | decomposition of 1-kestose [3] |
| --- | --- | --- | --- |
| OC[C@H]1O[C@H](O[C@H]2[C@H](O)[C@@H](O)C(O)O[C@@H]2CO)[C@H](O)[C@@H](O)[C@@H]1O (mixture of isomers) [maltose] | not on | not on |  |
| OC[C@H]1O[C@@](CO)(OC[C@@]2(O[C@H]3O[C@H](CO)[C@@H](O)[C@H](O)[C@H]3O)O[C@H](CO)[C@@H](O)[C@@H]2O)[C@@H](O)[C@@H]1O [Example 1-kestose, 1-kestose] | effectively acts on | effectively acts on | hardly observed |
| OC[C@H]1O[C@H](OC[C@H]2O[C@H](O[C@]3(CO)O[C@H](CO)[C@@H](O)[C@@H]3O)[C@H](O)[C@@H](O)[C@@H]2O)[C@H](O)[C@@H](O)[C@H]1O [raffinose] | effectively acts on | effectively acts on |  |
| OC[C@H]1O[C@@](CO)(O[C@H]2O[C@H](CO)[C@@H](O)[C@H](O)[C@H]2O)[C@@H](O)[C@@H]1O [sucrose] | effectively acts on | effectively acts on |  |
| O=C(CO)[C@@H](O[C@H]1O[C@H](CO)[C@@H](O)[C@H](O)[C@H]1O)[C@H](O)[C@H](O)CO [turanose] | not on | not on |  |
